Assay: Phase I, cytochrome P450-mediated human liver microsome metabolism
Details: 0.5 μM; human liver microsomes

## Cc1ncc2n1-c1ccc(Cl)cc1C(c1ccccc1F)=NC2 [Midazolam, reference compound]
  elimination rate constant (k): 0.04
  intrinsic clearance (CLint): 3.23 mL/min/g

Source: patent publication US20230277569A1, “Compositions and Methods for Treating, Ameliorating and/or Preventing Cancer and Kits for the Same” (priority 2022, published 2023)
